Earlier results in patent publication US11732223B2, “Solvent compositions for removing petroleum residue from a substrate and methods of use thereof” (priority 2004, dated 2023).

System: rats

For `CCCCOCCOCCO` [butyl carbitol], the “oral LD50” value (oral, rats) is given as 6,560 mg/kg and the “toxicity rating on the Hodge and Sterner scale” value (rat, in vivo) is given as 5.
